Patent US20240390434A1, “PROBIOTIC ENHANCERS AND USES THEREOF” (Blis Technologies Limited, priority 2021, published 2024)

Columns and labels:
Format in all cases: cell-based
[1] = tested on: indicator bacterial test strains; assay: Inhibitory activity of freeze dried raw ingredient powder, K12; settings: galactose 0.5% w/w; raffinose 2.5% w/w; or combination
Experimental: Method: The amount of raffinose and galactose used was calculated based on the volume of the area of the producer streak, (which was calculated to be 4.25 g) to allow for the absorption of the saccharides into the agar. Based on this, amount of 0.021 g (i.e. 0.5% w/w galactose of 4.25 g agar volume) of galactose, 0.11 g (i.e 2.5% w/w) of raffinose and the combination of galactose (0.5% w/w) and raffinose (2.5% w/w) (0.13 g total) were weighed into sterile containers. K12 and/or M18 raw ingredient were suspended and diluted with sterile distilled water to a concentration of 1-2×10^6 cfu/100 μl. Then, […] of K12 only, M18 only, and K12±M18 suspensions were spread as a 1 cm streak down the middle of a CABCa agar plate using a sterile spreader. […] Bacterial growth was then removed using a microscope slide, and the pH of the agar in the producer streak area was measured and adjusted to pH 6.5-7.5 using 0.5M sodium carbonate (pH 11) before surface sterilizing the plates with chloroform vapour. […] Zones of inhibition for each test organism were then measured in mm using a ruler. The amount of raffinose and galactose to be used was calculated based on the volume of the area of the producer streak, (which was calculated to be 4.25 g) to allow for absorption into the agar.

M. catarrhalis TW1 = assay: Deferred antagonism assay, producer S. salivarius K12
Experimental: (§1) 1-2 producer strain colonies were transferred from a stock plate into 900 μL of suspension solution using a fresh cotton swab. Following this, suspensions were vortexed, and a sample was inoculated onto solid culture media using a fresh cotton swab. The inoculation was a streak that runs diametrically across the agar plate in a 1.5 cm wide strip. The plate was then incubated. Following incubation all visible colonies were removed by swabbing them from the agar surface. The plates were then treated with chloroform by dispensing 2 ml of chloroform onto 4 cm×4 cm piece of cloth and sealing the inverted agar plate on top for 30 minutes. The plates were then air dried for 30 minutes following chloroforming. 1-2 indicator strain colonies were then transferred from a stock plate into complementary suspension solution. The suspensions were then vortexed, and a sample was inoculated onto the same agar surface. These samples were streaked in a perpendicular direction to the initial producer streak.
Each indicator streak was prepared with fresh a suspension containing cells from a corresponding stock plate containing the indicator strain of interest. Indicator strains suspension samples were transferred using a fresh cotton swab. Results were measured by qualitatively reviewing the subsequent (if any) sizes of the zones of inhibition (ZOI) of indicator strain colony growth. A positive result is when there is a distinctive reduction or complete inhibition of indicator colony growth on the culture medium.
CABCa agar plates containing various concentrations of saccharide were prepared according to the methods described in Method 1. Producer strains were transferred from stock agar plates into 900 μL THB using a fresh cotton swab. A plastic spread plater was cut to approximately 1.2 cm width and then dipped into ethanol and left to air dry to ensure sterility. A 100 μL sample of the producer strain suspension was then dispensed onto the agar surface in a straight line running diametrically across the agar surface in (approximately) 20 μL spots. The spots were spaced approximately 1.5 cm apart from each other. The plastic spreader was then used to evenly distribute the spots across the agar surface in a 1.5 cm wide strip. This step was taken to ensure an even producer streak was inoculated onto the agar surface and provided an approximate measure of the initial inoculum concentration. Separate plastic spreaders were used for samples containing different producer strains. The samples were left to soak into the agar surface until there was no visible liquid remaining on the agar surface (approximately 20 minutes). Following producer streak preparations, the deferred antagonism assay protocol was followed as per Method 2. Results were recorded by measuring the size of the zone of inhibition (ZOI) in mm.
A dose response assay was carried out according to method 3 above, except a 1.2 cm streak was used. For the individual saccharide testing the pH of the producer streak was adjusted after the growth of producer to change the acidic conditions.

[2] = tested on: S. pyogenes strains or other pathogens; assay: Inhibitory activity of K12 grown in M17 broth with saccharides; settings: saccharide 0.83% or 2.5% w/v, vs control
ENTR indicator strains = assay: Dose response deferred antagonism assay, producer K12: average over indicators
Experimental: as §1, with “The suspensions were then vortexed, and a sample was inoculated onto the same agar surface. These samples were streaked in a perpendicular direction to the initial producer streak.” left out
Each indicator streak was prepared with fresh a suspension containing cells from a corresponding stock plate containing the indicator strain of interest. […] Results were measured by qualitatively reviewing the subsequent (if any) sizes of the zones of inhibition (ZOI) of indicator strain colony growth. […]
CABCa agar plates containing various concentrations of saccharide were prepared according to the methods described in Method 1. […] Results were recorded by measuring the size of the zone of inhibition (ZOI) in mm. […]

L. lactis T-21 = assay: Dose response deferred antagonism assay, producer M18

Structure (SMILES) | inhibitory activity of freeze-dried raw ingredient powder of K12 [1] | change in TW1 ZOI size (M. catarrhalis TW1; 1.5% galactose (w/v), peak) [mm] | inhibitory activity of K12 grown in presence of saccharide [2] | Average ZOI change (ENTR indicator strains; 2% galactose) [mm] | L. lactis zone of inhibition (L. lactis T-21; 1.5% (w/v) galactose, largest) [mm] | change in ZOI size M. catarrhalis TW1 (M. catarrhalis TW1; 2.0% (w/v) raffinose, peak) [mm] | Zone of inhibition M. catarrhalis TW1 (M. catarrhalis TW1; Raffinose 1.7% wt) [mm] | Zone of inhibition M. catarrhalis TW1 (M. catarrhalis TW1; Raffinose 1.7% wt, pH adjusted) [mm] | Zone of inhibition M. catarrhalis TW1 (M. catarrhalis TW1; Raffinose 2.5% wt) [mm] | Zone of inhibition M. catarrhalis TW1 (M. catarrhalis TW1; Raffinose 2.5% wt, pH adjusted) [mm] | Zone of inhibition M. catarrhalis TW1 (M. catarrhalis TW1; Raffinose 3.3% wt) [mm] | Zone of inhibition M. catarrhalis TW1 (M. catarrhalis TW1; Raffinose 3.3% wt, pH adjusted) [mm] | Zone of inhibition M. catarrhalis TW1 (M. catarrhalis TW1; Raffinose 5% wt) [mm] | Zone of inhibition M. catarrhalis TW1 (M. catarrhalis TW1; Raffinose 5% wt, pH adjusted) [mm] | Zone of inhibition M. catarrhalis TW1 (M. catarrhalis TW1; Raffinose 10% wt) [mm] | Zone of inhibition M. catarrhalis TW1 (M. catarrhalis TW1; Raffinose 10% wt, pH adjusted) [mm] | Average ZOI change (ENTR indicator strains; 1.5% raffinose) [mm] | L. lactis ZOI size (L. lactis T-21; 0.1% (w/v) raffinose) [mm]
O=C[C@H](O)[C@@H](O)[C@@H](O)[C@H](O)CO [Galactose, D-galactose] | induced the inhibitory activity | 12 | greater inhibitory activity | 9.5 | 9 |  |  |  |  |  |  |  |  |  |  |  |  | 
OC[C@H]1O[C@H](OC[C@H]2O[C@H](O[C@]3(CO)O[C@H](CO)[C@@H](O)[C@@H]3O)[C@H](O)[C@@H](O)[C@@H]2O)[C@H](O)[C@@H](O)[C@H]1O [Raffinose, D-(+) Raffinose pentahydrate] | induced the inhibitory activity |  | greater inhibitory activity |  |  | 13 | 0 | 0 | 10 | 0 | 0 | 0 | 5 | 0 | 6 | 0 | 10.33 | 20
